Test results as given in EP4635500A1, “THERAPEUTIC AGENT FOR BACTERIAL INFECTION” (Sumitomo Pharma Co., Ltd., priority 2022, dated 2024).
Values after ≈ are worked out from the molar mass of the structure shown. Like-named read-outs stand apart in the source and are kept apart here.

Tests used:
OXA-23 = OXA-23 (Acinetobacter baumannii, UniProt Q9L4P2); experiment: Ki,app against β-lactamase (Example 1, Table 1); format: biochemical; settings: OXA-23, class D; 30 min preincubation; n.d.: too low inhibitor activity at 100 µmol/L; read-out: Ki app
Sequence of OXA-23 (Q9L4P2 18-273): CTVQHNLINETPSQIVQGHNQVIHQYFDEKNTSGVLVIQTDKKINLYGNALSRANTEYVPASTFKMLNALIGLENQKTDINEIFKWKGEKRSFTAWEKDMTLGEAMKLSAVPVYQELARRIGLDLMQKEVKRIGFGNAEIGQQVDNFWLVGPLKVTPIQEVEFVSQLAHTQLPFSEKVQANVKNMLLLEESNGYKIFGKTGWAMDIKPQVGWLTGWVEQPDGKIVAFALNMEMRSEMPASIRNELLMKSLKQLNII
Description: After stirring, the resultants were preincubated for 30 minutes at 37°C. The reporter substrate solution was incubated at 37°C for 15 minutes or more, dispensed at 100 µL/well, and measured for a change in absorbance by a microplate reader at 37°C. For each measured concentration of the positive control and the inhibitor, an initial rate (µmol/L/sec) was determined from a time to be analyzed and a change in product amount. […] Ki,app for each inhibitor concentration was calculated from the slope, the inhibitor concentration, an enzyme concentration, Km, and kcat using Expression 2. If the initial rate was determined at two or more concentrations for each inhibitor and a plurality of Ki,app could be obtained, an average value was used as the Ki,app for the inhibitor. t−tc = Km /Vmax x ([Inhibitor]/Ki,app)x Ln[S]0 /[S] [formula] Ki,app = [Inhibitor]x Km /(kcatx[Enzyme])x 1/slope [formula]
The experiment was performed in duplicate.

A. baumannii = experiment: MIC, broth microdilution, CDC/FDA Antibiotic Resistance Isolate Bank (Example 7, Tables 9, 13, 14); format: cell-based, Acinetobacter baumannii
Escherichia coli = experiment: MIC, broth microdilution, standard strains and Japanese clinical isolates (Example 5, Table 4); format: cell-based
Klebsiella pneumoniae = experiment: as above; format: cell-based
Enterobacter cloacae = experiment: as above; format: cell-based
Enterobacter hormaechei = experiment: as above; format: cell-based; settings: ATCCBAA2082; KUB4001 Enterobacter hormaechei ATCC BAA-2082, KPC-2
Providencia rettgeri = experiment: as above; format: cell-based; settings: ATCCBAA2525; KUB4010 Providencia rettgeri ATCC BAA-2525, OXA-181
53 CRE and CPE strains = experiment: MICrange, MIC50, MIC80, MIC90 for 53 bacterial isolates (Example 5, Table 5); format: cell-based; settings: 53 bacterial isolates
CRE and CPE strains = experiment: MIC, broth microdilution, standard strains and Japanese clinical isolates (Example 5, Table 4 continued; organism of each KUB strain not given); format: cell-based

O=C(NC1CCNCC1)[C@@H]1CC[C@@H]2CN1C(=O)N2OS(=O)(=O)O [Relebactam, relebactam]
Ki (OXA-23): 5.64 ± 0.522 µM

C[C@H]1COc2c(N3CCN(C)CC3)c(F)cc3c(=O)c(C(=O)O)cn1c23 [Levotloxacin]
MIC (A. baumannii; A. baumannii KUB No. 5567, AR Bank #70, OXA-58, OXA-100): 4 mg/L (≈ 11.1 µM) | MIC (A. baumannii; A. baumannii KUB No. 5575, AR Bank #78, OXA-71): 32 mg/L (≈ 88.6 µM) | MIC (A. baumannii; A. baumannii KUB No. 5580, AR Bank #83, OXA-23, OXA-69, NDM-1): 8 mg/L (≈ 22.1 µM) | MIC (A. baumannii; A. baumannii KUB No. 5585, AR Bank #88, OXA-64, NDM-1): 8 mg/L (≈ 22.1 µM) | MIC (A. baumannii; A. baumannii KUB No. 5598, AR Bank #101, OXA-24, OXA-65): 16 mg/L (≈ 44.3 µM) | MIC (A. baumannii; A. baumannii KUB No. 5599, AR Bank #102, OXA-66): 8 mg/L (≈ 22.1 µM) | MIC (A. baumannii; A. baumannii KUB No. 5706, AR Bank #273, OXA-23, OXA-66): 64 mg/L (≈ 177 µM) | MIC (A. baumannii; A. baumannii KUB No. 5707, AR Bank #274, OXA-66, OXA-72): 16 mg/L (≈ 44.3 µM) | MIC (A. baumannii; A. baumannii KUB No. 5708, AR Bank #275, OXA-23, OXA-66): 8 mg/L (≈ 22.1 µM) | MIC (A. baumannii; A. baumannii KUB No. 5709, AR Bank #276, no carbapenemase genes (-)): 16 mg/L (≈ 44.3 µM) | MIC (A. baumannii; A. baumannii KUB No. 5710, AR Bank #277, OXA-24, OXA-65): 16 mg/L (≈ 44.3 µM) | MIC (A. baumannii; A. baumannii KUB No. 5711, AR Bank #278, OXA-23, OXA-66): 8 mg/L (≈ 22.1 µM) | MIC (A. baumannii; A. baumannii KUB No. 5712, AR Bank #279, OXA-23, OXA-66): 8 mg/L (≈ 22.1 µM) | MIC (A. baumannii; A. baumannii KUB No. 5713, AR Bank #280, OXA-66): 16 mg/L (≈ 44.3 µM) | MIC (A. baumannii; A. baumannii KUB No. 5714, AR Bank #281, OXA-82): 8 mg/L (≈ 22.1 µM) | MIC (A. baumannii; A. baumannii KUB No. 5715, AR Bank #282, OXA-23, OXA-66): 8 mg/L (≈ 22.1 µM) | MIC (A. baumannii; A. baumannii KUB No. 5716, AR Bank #283, OXA-23, OXA-66): 16 mg/L (≈ 44.3 µM) | MIC (A. baumannii; A. baumannii KUB No. 5717, AR Bank #284, OXA-24, OXA-65): 16 mg/L (≈ 44.3 µM) | MIC (A. baumannii; A. baumannii KUB No. 5718, AR Bank #285, OXA-24, OXA-65): 64 mg/L (≈ 177 µM)

C[C@@H](O)[C@H]1C(=O)N2C(C(=O)O)=C(SCCN=CN)C[C@H]12 [Imipenem, imipenem]
MIC (Escherichia coli; ATCCBAA2452, KUB4005 Escherichia coli ATCC BAA-2452, NDM-1): 4 mg/L (≈ 13.4 µM) | MIC (Escherichia coli; ATCCBAA2471, KUB4007 Escherichia coli ATCC BAA-2471, NDM-6): 32 mg/L (≈ 107 µM) | MIC (Klebsiella pneumoniae; ATCCBAA1898, KUB3996 Klebsiella pneumoniae ATCC BAA-1898, KPC-2): 32 mg/L (≈ 107 µM) | MIC (Klebsiella pneumoniae; ATCCBAA1899, KUB3997 Klebsiella pneumoniae ATCC BAA-1899, KPC-2): 8 mg/L (≈ 26.7 µM) | MIC (Klebsiella pneumoniae; ATCCBAA1900, KUB3998 Klebsiella pneumoniae ATCC BAA-1900, KPC-3): 32 mg/L (≈ 107 µM) | MIC (Klebsiella pneumoniae; ATCCBAA1904, KUB3999 Klebsiella pneumoniae ATCC BAA-1904, KPC-3): 4 mg/L (≈ 13.4 µM) | MIC (Klebsiella pneumoniae; ATCCBAA2078, KUB4000 Klebsiella pneumoniae ATCC BAA-2078, KPC-3): 8 mg/L (≈ 26.7 µM) | MIC (Klebsiella pneumoniae; ATCCBAA2146, KUB4011 Klebsiella pneumoniae ATCC BAA-2146, NDM-1): > 32 mg/L | MIC (Klebsiella pneumoniae; ATCCBAA2342, KUB4003 Klebsiella pneumoniae ATCC BAA-2342, KPC-3): 8 mg/L (≈ 26.7 µM) | MIC (Klebsiella pneumoniae; ATCCBAA2343, KUB4004 Klebsiella pneumoniae ATCC BAA-2343, KPC-3): 16 mg/L (≈ 53.4 µM) | MIC (Klebsiella pneumoniae; ATCCBAA2472, KUB4008 Klebsiella pneumoniae subsp. Pneumoniae ATCC BAA-2472, NDM-1): 32 mg/L (≈ 107 µM) | MIC (Klebsiella pneumoniae; ATCCBAA2473, KUB4009 Klebsiella pneumoniae ATCC BAA-2473, NDM-1): 32 mg/L (≈ 107 µM) | MIC (Klebsiella pneumoniae; KUB3631 Klebsiella pneumoniae Clinical isolate, IMP-1): 1 mg/L (≈ 3.34 µM) | MIC (Klebsiella pneumoniae; KUB3633 Klebsiella pneumoniae Clinical isolate, IMP-6): 0.12 mg/L (≈ 0.401 µM) | MIC (Klebsiella pneumoniae; KUB3634 Klebsiella pneumoniae Clinical isolate, IMP-6): 0.12 mg/L (≈ 0.401 µM) | MIC (Klebsiella pneumoniae; KUB3635 Klebsiella pneumoniae Clinical isolate, IMP-1): > 32 mg/L | MIC (Enterobacter cloacae; ATCCBAA2341, KUB4002 Enterobacter cloacae ATCC BAA-2341, KPC-3): 16 mg/L (≈ 53.4 µM) | MIC (Enterobacter cloacae; ATCCBAA2468, KUB4006 Enterobacter cloacae ATCC BAA-2468, NDM-1): > 32 mg/L | MIC (Enterobacter hormaechei): 32 mg/L (≈ 107 µM) | MIC (Providencia rettgeri): 4 mg/L (≈ 13.4 µM) | MIC50 (53 CRE and CPE strains; read-out: MIC50): 4 mg/L (≈ 13.4 µM) | MIC80 (53 CRE and CPE strains; read-out: MIC80): 32 mg/L (≈ 107 µM) | MIC90 (53 CRE and CPE strains; read-out: MIC90): 32 mg/L (≈ 107 µM) | MIC (CRE and CPE strains; strain KUB3148, carbapenemase gene KPC-3, read-out: MIC): 1 mg/L (≈ 3.34 µM) | MIC (CRE and CPE strains; strain KUB3149, carbapenemase gene NDM-1, read-out: MIC): 4 mg/L (≈ 13.4 µM) | MIC (CRE and CPE strains; strain KUB3150, carbapenemase gene OXA-48, read-out: MIC): 0.5 mg/L (≈ 1.67 µM) | MIC (CRE and CPE strains; strain KUB3151, carbapenemase gene IMP-1, read-out: MIC): 0.5 mg/L (≈ 1.67 µM) | MIC (CRE and CPE strains; strain KUB3152, carbapenemase gene KPC-2, read-out: MIC): 8 mg/L (≈ 26.7 µM) | MIC (CRE and CPE strains; strain KUB3153, carbapenemase gene KPC-3, read-out: MIC): 16 mg/L (≈ 53.4 µM) | MIC (CRE and CPE strains; strain KUB3154, carbapenemase gene KPC-2, read-out: MIC): 1 mg/L (≈ 3.34 µM) | MIC (CRE and CPE strains; strain KUB3163, carbapenemase gene IMP-1): 2 mg/L (≈ 6.68 µM) | MIC (CRE and CPE strains; strain KUB3606, carbapenemase gene KPC-38): > 32 mg/L | MIC (CRE and CPE strains; strain KUB3620, carbapenemase gene -): 32 mg/L (≈ 107 µM) | MIC (CRE and CPE strains; strain KUB3628, carbapenemase gene IMP-1): 32 mg/L (≈ 107 µM) | MIC (CRE and CPE strains; strain KUB3629, carbapenemase gene IMP-1): 8 mg/L (≈ 26.7 µM)
